Results reported in patent US8324279B2, “Compositions and methods for inhibiting an isoform of human manganese superoxide dismutase” (MitoTek, LLC, priority 2003, dated 2012).
“Also recorded” adds a separate entry of the source.

How the values were obtained:
[1] = tested on: adult cardiomyocyte explants; experiment: Doxorubicin induction of isoMnSOD expression in adult heart explants (Western Blot); type: cell-based, rat; details: 3 days, 0.1 nM to 1.0 μM Doxorubicin, AdvDMEM 2% FBS, FIG. 3
From the text: Adult cardiomyocytes were isolated and purified following the combination of perfusion techniques (Borg et al. Recognition of extracellular matrix components by neonatal and adult cardiac myocytes. Dev Biol. 1984; 104:86-96) and an attachment procedure (Bugaisky L B, Zak R. Differentiation of adult rat cardiac myocytes in cell culture. Circ Res. 1989; 64:493-500) as described by Sil et al. (Sil et al. Myotrophin in human cardiomyopathic heart. Circ Res. 1993; 73:98-108). Briefly, after rats (5 weeks old) were killed by decapitation, the hearts were aseptically excised and residual blood was removed. The heart was perfused in Joklik's medium (containing Joklik's minimal essential medium, 25 mmol/L glutamic acid, 30 mmol/L taurine, and 1 mmol/L adenosine) without recirculation on a modified Langendorff apparatus for approximately 10 minutes at 37° C. The perfusion was then continued for 30 minutes at the same temperature, with recirculation in Joklik's medium containing collagenase type II (100 U/mL). After perfusion, the ventricles were cut into small pieces and tritulated in 0.05% Trypsin/EDTA for 10 min. Cardiac explants were cultured overnight on laminin-coated (20 μg per well) 35-mm six-well plates in medium 199 containing 5% FBS, 5 mM creatine, 2 mM L-carnitine, and 5 mM taurine. […]

altMnSODreport = experiment: Testing of drugs for toxicity with the reporter gene system; type: cell-based; details: cells comprising the reporter gene system
Method: Drugs are tested alone or in combination in cancerous or diseased cells and in healthy cells. The compounds are added to cells comprising the reporter gene system. The induction of the reporter is characterized in the absence and the presence of the drug(s).
Breast cancer cell line, MDA-MB-435, Her-2/neu over-expressing (ATCC), fibroblast cells lines NIH3T3 and B104, which are NIH3T3 cells transfected with the rat ErbB2/Her2 oncogene, and normal primary cells (Clonetics; rat cardiomyocytes, donated by Kathryn Maschhoff, MD PhD, Neonatology, University of Pennsylvania) are treated with doxorubicin alone and in combination with the rat ErbB2/Her2 17.6.4 monoclonal antibody, which downregulates the human and rat Her2 receptor (Zhang et al., 1999)(Oncogene), and Herceptin™ (Genentech). It is also determined if the Her2 mAbs induces isoMnSOD expression in untransfected cells and cells transfected with altMnSODreport. A dose-response curve is established, using western immunoblot analysis of the isoMnSOD protein and the expression of the reporter construct. A similar analysis is performed for doxorubicin treatment of cells. Both treatments are analyzed for their effects on mtDNA stability by Southern hybridization analysis, induction of lipid peroxidation by immunodetection of HNE-modified proteins, and induction of apoptosis by activation of caspases 9 and 3.

isoMnSOD [2] = experiment: Peroxidative assay of native mitochondrial extracts from compound-treated pancreatic explants (ROS-activity blot); type: cell-based, pig; details: pancreatic explant cultured 1 hr at 37° C. with equal volume of 2 μM compound; FIG. 1
Method: Recombinant and mammalian detergent extracts of native mitochondrial proteins were separated in a 7% PAGE gel without SDS containing 375 mM Tris pH 8.2 at 100 volts for 1.5 hr. After electrotransfer of proteins to nitrocellulose using transfer buffer without SDS, peroxidative activity was measured directly upon the filter by their incubation with 0.5 ml of the Femtomole luminol solution (Pierce) containing 1 mM H2O2 and exposing to x-ray film or other means of detecting chemiluminescence.
F10 medium was used throughout the procedure. Pancreas (8 grams) from a 3 kilo pig was minced, washed twice, and 1 g of tissue was resuspended in 5 ml of FIO medium. […] Explants were stored frozen at −70° C. Tissue was homogenized in Buffer A at 4° C. and mitochondria was isolated by differential centrifugation and stored frozen at −70° C. Peroxidative assay of native mitochondrial extracts analyzed by the ROS-activity blot.

isoMnSOD [3] = target: T1, isoMnSOD (Homo sapiens, UniProt P04179); experiment: Detection of inhibitors bound to isoMnSOD (immunoprecipitation/western blot); details: anti-dopamine or anti-serotonin antibody; FIG. 2A and 2B
T1 sequence (P04179 25-183 isoform P04179-2 limits assumed): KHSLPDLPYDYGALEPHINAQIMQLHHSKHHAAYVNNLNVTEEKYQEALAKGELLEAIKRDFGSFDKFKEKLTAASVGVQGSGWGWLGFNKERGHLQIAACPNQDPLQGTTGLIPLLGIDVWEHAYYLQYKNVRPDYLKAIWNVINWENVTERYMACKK
Method: Covalent modification of the MnSOD-Exon3-deleted isoform was measured by a combined immuneprecipitation/western blot analysis. Immunoblots for detecting AA-DA, EPA-DA, DHA-DA, C18:4(ω-3)-DA adducts were performed using anti-dopamine rabbit polyclonal (Chemicon) and anti-serotonin goat polyclonal antibodies (ImmunoStar), respectively. After immunoprecipitating using an antibody against the inhibitor, isoMnSOD was detected as described above.

isoMnSOD [4] = experiment: Pro-oxidant activity of isoMnSOD, at least one of the assays provided in the Examples; details: according to at least one of the assays provided in the Examples
Method: (§1) Each test compound was prepared by mixing 5 μL of a 1 mM test compound stock solution in ethanol with 5 μL of 0.1 M KOH, followed by the addition of 5 ml of TBS for a final concentration of 1 μM test compound. Equal amounts of native protein extracts from pancreatic mitochondria (obtained according to the protocol of Example 5) were loaded in separate wells and resolved in a 7% PAGE gel without SDS, electrotransferred to PVDF and divided into strips. Each PVDF strip was incubated with 1 μM of test compound in TBS for 30 minutes, washed twice in TBS for 20 minutes, and the peroxidative activity of isoMnSOD was measured by incubation of each strip with 1 mM H2O2 in 0.4 ml of the luminol solution contained within the Femtomole chemiluminescence assay kit (Pierce) and exposed to x-ray film (FIG. 4).
Peroxidative assay of native mitochondrial extracts analyzed by the ROS-activity blot.

isoMnSOD [5] = experiment: Drug inhibition method: peroxidative activity of isoMnSOD on PVDF strips (ROS-activity blot); details: 1 μM test compound for 30 minutes; 1 mM H2O2, luminol chemiluminescence; FIG. 4
Method: as §1
All procedures were carried out at 4° C.

Molecule	isoMnSOD expression [1]	expression of altMnSOD report (altMnSODreport)	mitochondrial peroxidase activity (isoMnSOD [2])	binding to isoMnSOD (covalent modification of the MnSOD-Exon3-deleted isoform) (isoMnSOD [3])	pro-oxidant activity of isoMnSOD (isoMnSOD [4])	peroxidative activity of isoMnSOD (isoMnSOD [5])
COc1cccc2c1C(=O)c1c(O)c3c(c(O)c1C2=O)C[C@@](O)(C(=O)CO)C[C@@H]3O[C@H]1C[C@H](N)[C@H](O)[C@H](C)O1 [Doxorubicin]	induced isoMnSOD expression; also recorded: induces the expression of isoMnSOD	causes an increase in expression of altMnSOD report	–	–	–	–
CCCCC/C=C\C/C=C\C/C=C\C/C=C\CCCC(=O)NCCc1c[nH]c2ccc(O)cc12 [arachidonoyl-serotonin, arachidonoyl serotonin]	–	–	inhibited the mitochondiral peroxidase activity	able to bind to isoMnSOD	found to inhibit pro-oxidant activity of isoMnSOD	–
CC/C=C\C/C=C\C/C=C\C/C=C\C/C=C\C/C=C\CCC(=O)NCCc1ccc(O)c(O)c1 [docosahexaenoyl (DHA)-dopamine, docosahexaenoyl dopamine]	–	–	inhibited the mitochondiral peroxidase activity	able to bind to isoMnSOD	found to inhibit pro-oxidant activity of isoMnSOD	inhibit peroxidative activity more significantly than the other compounds
CC/C=C\C/C=C\C/C=C\C/C=C\C/C=C\CCCC(=O)NCCc1ccc(O)c(O)c1 [eicosapentaenoyl (EPA)-dopamine, eicosapentaenoyl dopamine]	–	–	did not inhibit peroxidase activity to the same effect	–	found to inhibit pro-oxidant activity of isoMnSOD	inhibit peroxidative activity more significantly than the other compounds
C18:4(ω-3)-dopamine	–	–	inhibited the mitochondiral peroxidase activity	able to bind to isoMnSOD	found to inhibit pro-oxidant activity of isoMnSOD	inhibit peroxidative activity more significantly than the other compounds
